For this assay, the system named is brain receptors (3H-diazepam binding). Description: Inhibition of the binding of 3H-diazepam to the brain receptors (rat frontal cortex P2-synaptosomal fraction). Further details: species or system male albino rats of the Wistar strain. Conditions: 3H-diazepam 1.5 nM, pH 7.4, 20 minutes in ice; for % Inhibition of Diazepam Binding: test concentration not given; for pIC50: inhibition of 3H-diazepam binding. From the text:
A test used to measure anxiolytic activity comprises measurement of the ability of test compounds to inhibit the binding of ^3 H-diazepam to the brain receptors of warm-blooded animals. The test is described by R. F. Squires in Nature, 266, No. 21, page 732 (April 1977). The animals used were male albino rats of the Wistar strain, weighing 150-200 g. each from Royalhart Farms. Diazepam (methyl-^3 H) was obtained from New England Nuclear. The test compounds were solubilized in either dimethylformamide, acetic acid, ethanol or hydrochloric acid. The frontal cortex of rats was homogenized gently in 20 volumes of ice-cold 0.32 M. sucrose, centrifuged twice at 1000 g. for 10 minutes and then recentrifuged at 30,000 g. for 20 minutes to produce a crude P2 -synaptosomal fraction. The P2 -fraction was rehomogenised, twice the original volume, in hypotonic 50 mM. Tris.HCl (pH 7.4). The binding assay consisted of 300 .parallel.l. of the P2 -fraction suspension (0.350 mg.), 100 .parallel.l. of test drug and 100 μl. of ^3 H-diazepam (1.5 nM.), which was added to 1.5 ml. of 50 mM. Tris.HCl (pH 7.4). Non-specific binding controls and total binding controls received 100 μl. of diazepam (3 μm.) and 100 μl. of deionized water, respectively, in place of the test compound. Incubation for 20 minutes proceeded in ice and was terminated by filtration, under vacuum, through Whatman GF/C glass fiber filters. The filters were washed twice with 5 ml. of ice-cold 50 mM. Tris.HCl (pH 7.4) and placed in scintillation vials. After drying at 50°-60° C. for 30 minutes, 10 ml. of Beckman Ready-Solve HP was added and the radioactivity determined in a Beckman Scintillation Counter.

The text below walks through data of US4200748A, “Pyrido[1',2':4,5][1,4]oxazino[2,3-b]quinoxalines and pyrrolo[1',2':4,5][1,4]oxazino[2,3-b]quinoxalines” (American Cyanamid Company, priority 1979, dated 1980).

pIC50: −log10 of the molar value.

Consider `c1ccc2nc3c(nc2c1)OCC1CCCN31` (single isomer, unassigned) [2,3,3a,4-Tetrahydro-1H-pyrrolo[1',2':4,5][1,4]oxazino[2,3-b]quinoxaline], for which the “% Inhibition of Diazepam Binding” value worked out at 87% and the pIC50 is 7.06.
On the same counts, the results for `FC(F)(F)c1ccc2nc3c(nc2c1)OCC1CCCCN31` (stereo not shown) [1,2,3,4,4a,5-Hexahydro-9-trifluoromethylpyrido[1',2':4,5][1,4]oxazino[2,3-b]quinoxaline] are 90% and 6.45.
Regarding `O=[N+]([O-])c1cccc2nc3c(nc12)N1CCCCC1CO3` (stereo not shown) [1,2,3,4,4a,5-hexahydro-11-nitropyrido[1',2':4,5][1,4]oxazino[2,3-b]quinoxaline], the “% Inhibition of Diazepam Binding” value is 72% and the negative-log IC50 (pIC50) was 6.68.
Regarding `Nc1ccc2nc3c(nc2c1)OCC1CCCCN31` (stereo not shown) [9-Amino-1,2,3,4,4a,5-hexahydropyrido[1',2':4,5][1,4]oxazino[2,3-b]quinoxaline], the “% Inhibition of Diazepam Binding” value is given as 93% and the pIC50 was 7.41.
On the same counts, the results for `Clc1ccc2nc3c(nc2c1)OCC1CCCCN31` (stereo not shown) [9-Chloro-1,2,3,4,4a,5-hexahydropyrido[1',2':4,5][1,4]oxazino[2,3-b]quinoxaline] are 97% and 7.85.
On the same counts, the results for `Clc1ccc2nc3c(nc2c1)N1CCCCC1CO3` (stereo not shown) [10-chloro-1,2,3,4,4a,5-hexahydropyrido[1',2':4,5][1,4]oxazino[2,3-b]quinoxaline] are 95% and 7.66.
For `Nc1cccc2nc3c(nc12)N1CCCCC1CO3` (stereo not shown) [11-Amino-1,2,3,4,4a,5-hexahydropyrido[1',2':4,5][1,4]oxazino[2,3-b]quinoxaline], in that order: 98% and 7.70.
With `CN(C)C=Nc1cccc2nc3c(nc12)N1CCCCC1CO3` (stereo not shown) [N'-(1,2,3,4,4a,5-hexahydropyrido[1',2':4,5][1,4]oxazino[2,3-b]quinoxalin-11-yl)-N,N-dimethylformamidine], the “% Inhibition of Diazepam Binding” value came out at 96% and the negative-log IC50 (pIC50) is 7.26.
